These results are taken from patent US20190055512A1, “METHODS AND COMPOSITIONS FOR SUBSTITUTING MEMBRANE LIPIDS IN LIVING CELLS” (The Research Foundation for The State University of New York, priority 2016, published 2019).

The subject of data set [1] is A549 cells. In words: Delivery of fluorescent NBD-DPPE into cells, kinetics of exchange. It counts as cell-based, human. Here is the method: Microscopy and Kinetics of Exchange Monitored with Fluorescent Probes and ^3H Acetate: Cyclodextrin-lipid complex containing 1.5 mM lipid (90% bSM and 10% NBD-DPPE) and 40 mM MαCD was prepared. Then, 500 μl of the cyclodextrin-lipid complex was added to 90% confluent A549 cells cultured in 6-well plates (Corning Inc., Durham, N.C.). The cells were incubated for different times at 37° C., and then the cyclodextrin-lipid complex was removed. After three washes with 2 ml PBS the cells were removed from the plate by scraping in 1 ml PBS. The cells were pelleted by centrifugation at 3,000 rpm for 3 minutes and re-suspended in 1 ml PBS. Seven μl aliquots of cells were loaded on microscope slides and covered with a, coverslip. NBD fluorescence was then imaged by confocal laser scanning microscopy using a Zeiss LSM 5 Pascal confocal laser scanning microscope system (Carl Zeiss AG, German).
In other experiments, fluorescence intensity was measured for the each well of cells whereby cells were placed in fluorescence cuvettes using Fluorolog (Jobin Yvon Horiba, Edison, N.J.) with an excitation wavelength of 465 nm and emission wavelength of 534 nm. A non-specific lipid transfer control was prepared in a similar fashion without cyclodextrin.
In an analogous experiment, A549 cells were ^3H labeled and subjected to lipid exchange with cyclodextrin-lipid complex. The cells were collected at different times and lipids extracted and separated on TLC as described above. Radioactivity in the PS+PI and SM bands was subsequently measured by scintillation counting.

In data set [2] the test system is A549 cells. Description: Charred TLC of cellular lipids after exchange. It counts as cell-based, human. As to conditions: exchange with 3 mM exogenous POPC and MαCD, 1 hour; FIG. 5C lane 4. Here is the method: High Performance Thin Layer Chromatography. The samples and pure lipid standards were dissolved in 1:1 (v:v) chloroform/methanol. […] The dissolved lipids then applied to HP-TLC (Silica Gel 60) plates (Merck, KGaA, Darmstadt, Germany) or Uniplate Silica Gel G plates (Analtech, Inc., Newark, Del.) and chromatographed in 65:25:5 (v:v) chloroform/methanol/28.0-30.0 (v/v) % ammonium hydroxide. Following chromatography, the TLC plates were air-dried and saturated with 3% (w/v) cupric-acetate-8% (v/v) phosphoric acid by spraying, and then air-dried again. Plates were then charred at 180° C. to develop lipid bands. Lipid band intensity was measured using Image J software (National Institutes of Health). Lipids in samples were quantified by comparing background-subtracted band intensity with that of a curve composed of various standard amounts of each lipid chromatographed on the same TLC plate. The intensity in the standard bands was fit to a linear intensity versus lipid quantity curve.
Analysis of exogenous lipid exchange over time after delivery into A549 cells. After a 1 h at 37° C. treatment with 40 mM MαCD mixed with 1.5 mM bSM, A549 cells were washed three times with DPBS. Then the cells were cultured for 0, 2, 4, and 6 hours in 10 mL RPMI 1640 medium supplemented with 10% fetal bovine serum. […]

Data set [3] concerns A549 cells. In words: Cell morphology (cell rounding) and cell condition during incubation with MαCD and lipids.
Excerpt: In certain embodiments, the appropriate lipid concentration can be determined prior to implementing the exchange methods of the instant disclosure. For example, the optimal lipid concentration can be determined by screening a series of various lipid concentrations. For example, cyclodextrin-lipid complexes of the present disclosure can be formed using a constant alpha-cyclodextrin concentration and varying lipid. Once various solutions of cyclodextrin and lipid are made they can be applied to cells using the methods described herein. This will enable the user to identify the highest concentration(s) lipids where the cells are not negatively affected, i.e., no cell rounding over time is optimal for lipid exchange, as it minimizes cell loss during processing. This can be determined, for example, by splitting cells into each well of a multi-well plate one day before the experiment and growing the cells to confluence. Then equal aliquots of the solutions having various concentrations of lipid are placed in separate wells and incubated at 37° C. for 1-2 hours.
In certain embodiments, the appropriate cyclodextrin concentration can be determined prior to implementing the exchange methods of the instant disclosure. For example, the optimal cyclodextrin concentration can be determined by screening a series of various cyclodextrin concentrations. For example, cyclodextrin-lipid complexes of the present disclosure can be formed using a constant lipid concentration but varying alpha-cyclodextrin concentration. Once various solutions of cyclodextrin and lipid are made they can be applied to cells using the methods described herein. […] This can be determined, for example, by splitting cells into each well of a multi-well plate one day before the experiment and growing the cells to confluence. Then equal aliquots of the solutions having various concentrations of cyclodextrin are placed in separate wells and incubated at 37° C. for 1-2 hours.
In some embodiments, the instructions for the analysis of lipid exchange include methods for identifying optimal concentrations of lipids and/or cyclodextrins for use in exchanging lipids between a cyclodextrin-lipid complex of the present disclosure and a cell membrane. […] As such, instructions included within kits of the instant disclosure can include, instructions for screening a series of various cyclodextrin or lipid concentrations. For example, the instructions can include maintaining a constant lipid concentration and altering numerous alpha-cyclodextrin concentrations or vice versa. […] This can be determined, for example, by splitting cells into each well of a multi-well plate one day before the experiment and growing the cells to confluency. […]
In data set [4] the test system is A549 cells. Description: Dithionite quenching of the NBD-DPPE exchanged into the cells. It counts as cell-based, human. Here is the method: Dithionite Quenching of the NBD-DPPE Exchanged into the Cells. Cells into which NBD-DPPE was exchanged were prepared as described above, except at either 15° C., room temperature (23° C.) or 37° C. Fluorescence was measured before and (as a function of time) after the addition of a freshly prepared solution of IM dithionite in IM Tris buffer (pH 10) to the cells providing a final dithionite concentration of 50 mM.

The test system of data set [5] is A549 cells. In words: Phospholipid content by LC/MS/MS after lipid exchange. Type of data set: cell-based, human. The following applies: mass spectrometry. The procedure: Exchange of Lipids between Cells and Cyclodextrin-lipid Complexes. Unless otherwise noted, the cells are cultured in 10 cm plates with 10 mL medium. After removing the growth medium and washing three times with 10 ml DPBS, a 1500 μL aliquot of cyclodextrin-lipid complex containing MαCD (formed using 1.5 mM lipid and 40 mM MαCD concentrations) was added to 90% confluent mammalian cells cultured in […] cell culture dishes (Corning Incorporated, Durham, N.C.). The cells were then incubated with the cyclodextrin-lipid complex for 1 hour at 37° C., unless otherwise noted. After removal of the cyclodextrin-lipid complex and three washes with 10 mL PBS the cells were removed from the plate by scraping in 5 mL PBS. The cells were then pelleted by centrifugation for 3 minutes at 3,000 rpm and the lipid composition of the pellet was analyzed. […]
Phospholipid Content by LCMS/M S: Phospholipids were extracted from samples as set forth above. […] The class specific phospholipid extracts for each sample were injected on an Agilent (Santa Clara Calif., USA) Eclipse XDB-C8 reversed phase column (4.6×50 mm, 1.8 μm particle size) for separation of molecular species within each class by gradient elution and detected by mass spectrometry utilizing scheduled multiple reaction monitoring. In this manner, a peak with unique column elution time and mass-to-fragment profile was measured. […]

For the next data set, the system named is MDA-MB-231 cells. Description: Transferrin (TF) endocytosis. It counts as cell-based. As to conditions: cholesterol depletion, 10 mM MβCD, 30 min, 37° C. Here is the method: Measurement of Transferrin (TF) Endocytosis. MDA-MB-231 cells were plated in 2 ml RPMI 1640 at 6×10^5 on a coverslip in a 35 mm dish. After 1 d, they were subjected to cholesterol depletion or phospholipid exchange. For cholesterol depletion, cells were washed with 1 ml DPBS (2-3 times) and treated with 10 mM M MβCD/DMEM for 30 min at 37° C. in the CO2 incubator. For phospholipid substitution, the DPBS washed cells were treated with mixture of 40 mM MαCD and a combination of 0.75 mM bSM and 0.75 mM POPC in serum free medium for 30 rain, again while maintained at 37° C. in the CO2 incubator. After cholesterol depletion or phospholipid exchange, cells were washed with 1 ml DPBS three times. Then 50 μg/ml TF-AF488 in DMEM was added to the cells and incubated for 10 min in room temperature in the dark. Next, cells were washed with 2 ml DPBS three times and subjected to an additional 3 washes on ice with an acid solution (100 mM citric acid, 140 mM NaCl in distilled water pH adjusted to 1.75), incubating the cells with the solution for 3 min during each wash. The acid wash solution was removed by washing three times with 2 ml of 1×PBS and the cells then fixed using 2 ml 3% PFA for 30 min (10 min on ice and 20 min at room temperature). […]

On to `OC[C@H]1O[C@@](CO)(O[C@H]2O[C@H](CO)[C@@H](O)[C@H](O)[C@H]2O)[C@@H](O)[C@@H]1O` [sucrose], for which the “amount of fluorescent lipid delivered to cells relative to buffer only” value with A549 cells [1] (40 or 240 mM sucrose substituted for MαCD) is “did not increase”.
As to “1-palmitoyl-2-oleoyl-sn-glycerol-3-phosphocholine [POPC]”, in the data set on A549 cells [2], the “removal of endogenous SM” value is recorded as “most endogenous SM was removed”. In addition, the “incubation time at which normal morphology begins to change” value in the data set on A549 cells [3] (3 mM POPC, 40 mM MαCD) is recorded as “≈45′”; with A549 cells [3] (3 mM POPC, 80 mM MαCD) it was “≈15′”; in the data set on A549 cells [3] (6 mM POPC, 40 mM MαCD), “≈45′”; in the data set with A549 cells [3] ([…] POPC, 40 mM MαCD) it was “≈15′”.
As for `CCCCCCCCCCCCCCCC(=O)OC[C@H](COP(=O)(O)OCCNc1ccc([N+](=O)[O-])c2nonc12)OC(=O)CCCCCCCCCCCCCCC` [NBD-DPPE, 1,2-dipalmitoyl-sn-glycero-3-phosphoethanolamine-N-(7-nitro-2-1,3-benzoxadiazol-4-yl)], in the data set on A549 cells [1] (37° C., FIG. 2A), the “half-time of delivery of NBD-DPPE and removal of endogenous SM” value was in the range of 15 to 20 min. The “Half-time of lipid exchange (endogenous SM removal / NBD-DPPE delivery)” value with A549 cells [1] (A549 cells, 37° C., FIG. 2A legend) is 10 to 15 min. Further, in the data set on A549 cells [4] (FIG. 3B), the “NBD-lipid exchanged into cells accessible to dithionite” value was 70-80%. For the same compound, the “fluorescence protected from dithionite reduction” value with A549 cells [4] (incubation at 15° C.) is recorded as “about 20%”; in the data set with A549 cells [4] (incubation at 37° C., extrapolated to time zero) it was “approximately 30%”.
Regarding `CCCCCCCCCCCCC/C=C/[C@@H](O)[C@H](COP(=O)([O-])OCC[N+](C)(C)C)NC(=O)CCCCCCCCCCCCCCCC` [C17:0 SM, N-hepadecanoyl-D-erythro-sphingosylphosphorylcholine], the “exogenous C17:0 SM in cells after exchange relative to total endogenous cell SM prior to exchange” value in the data set with A549 cells [5] is recorded as 2.1 fold.
With Methyl-β-cyclodextrin [MβCD], the “clathrin-mediated endocytosis of transferrin” value in the data set on MDA-MB-231 cells is “strongly inhibited”.
